Activity calls are given as the source filed them.

One assay addresses Cytochrome P450 2D6 (Homo sapiens, UniProt P10635).
Assay [1] in a line: viability of HCT116 lacking mutant beta-catenin – cell-based, human colon tumor, dose response (AID 1045).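 Further: HCT116 colon tumor cells with beta catenin knocked out; cells exposed to compound for 60 hours.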 It is filed as functional.
Assay [2] is described as follows: viability of PTEN-deleted HCT116 cells – cell-based, HCT116 PTEN knockout, dose response (AID 1047).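 Further: HCT116 colon tumor cells with PTEN knocked out; cells exposed to compound for 60 hours before readout; potency for loss of cell viability measured by luminescence.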 Type of assay: functional.
Assay [3] concerns Streptococcus sp. 'group A'. The experiment in a line: Streptococcus pyogenes SK(-)GAS viability under kanamycin – luminescence, BacTiterGlo, confirmation, counter-screen for streptokinase expression inhibitor project, dose response (AID 1900). It is filed as functional, organism-based. In general terms: Counterscreens check selectivity or assay interference.
Assay [4] is described as follows: NIH3T3 cell viability loss – ATP luminescence, mouse fibroblasts, counter-screen, dose response (AID 2010).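 Further: cells exposed to compound for about 90 hours before reading.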 It is filed as functional, cell-based.
Assay [5] is described as follows: Trypanosoma cruzi growth suppression in host cells – NIH3T3 host cells, beta-gal luminescence, confirmation (AID 2044).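 Further: intracellular parasites grown in NIH/3T3 mouse fibroblasts as host cells; luminescent beta-galactosidase reporter signal from transgenic T. cruzi replicating inside host cells; inhibitors lower the luminescence signal.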 Type of assay: functional, cell-based.
For the next assay, the system named is Streptococcus. The experiment in a line: GAS UMAA2166 growth inhibition – luminescence, BacTiterGlo, counter-screen for streptokinase expression inhibitor project, dose response (AID 1915).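 Further: potency for reduction of bacterial viability or growth.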 It is filed as functional, organism-based.
For assay [6], the target named is T1, Replicative DNA helicase DnaB (Mycobacterium tuberculosis, UniProt P9WMR3).
T1 sequence (P9WMR3 whole entry): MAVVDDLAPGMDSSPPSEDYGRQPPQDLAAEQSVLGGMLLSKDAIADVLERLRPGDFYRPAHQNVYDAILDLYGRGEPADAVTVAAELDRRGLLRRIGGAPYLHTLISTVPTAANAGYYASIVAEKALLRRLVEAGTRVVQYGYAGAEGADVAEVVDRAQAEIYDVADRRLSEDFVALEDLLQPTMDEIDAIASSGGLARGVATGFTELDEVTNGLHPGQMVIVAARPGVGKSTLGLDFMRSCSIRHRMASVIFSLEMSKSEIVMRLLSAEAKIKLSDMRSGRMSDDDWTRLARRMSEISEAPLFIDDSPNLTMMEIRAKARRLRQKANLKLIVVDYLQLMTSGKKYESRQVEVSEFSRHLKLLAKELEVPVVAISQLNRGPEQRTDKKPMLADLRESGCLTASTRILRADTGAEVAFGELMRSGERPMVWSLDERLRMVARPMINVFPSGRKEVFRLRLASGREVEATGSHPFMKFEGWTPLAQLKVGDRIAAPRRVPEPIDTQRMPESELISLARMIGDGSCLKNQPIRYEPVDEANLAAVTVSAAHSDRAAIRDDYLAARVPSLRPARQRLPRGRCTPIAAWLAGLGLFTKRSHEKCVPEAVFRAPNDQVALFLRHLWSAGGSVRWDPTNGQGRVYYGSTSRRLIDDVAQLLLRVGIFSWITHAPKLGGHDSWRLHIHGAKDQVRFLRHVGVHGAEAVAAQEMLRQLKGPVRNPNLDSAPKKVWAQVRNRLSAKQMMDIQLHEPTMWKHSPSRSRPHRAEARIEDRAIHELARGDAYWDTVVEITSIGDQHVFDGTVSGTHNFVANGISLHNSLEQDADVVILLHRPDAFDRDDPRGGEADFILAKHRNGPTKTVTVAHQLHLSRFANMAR
The experiment in a line: DnaB intein splicing inhibitors, dose response, biochemical, cell-free fluorescence (AID 449749). Type of assay: functional.

A further assay addresses T2, Protein RecA (Mycobacterium tuberculosis, UniProt P9WHJ3).
T2 sequence (P9WHJ3 whole entry): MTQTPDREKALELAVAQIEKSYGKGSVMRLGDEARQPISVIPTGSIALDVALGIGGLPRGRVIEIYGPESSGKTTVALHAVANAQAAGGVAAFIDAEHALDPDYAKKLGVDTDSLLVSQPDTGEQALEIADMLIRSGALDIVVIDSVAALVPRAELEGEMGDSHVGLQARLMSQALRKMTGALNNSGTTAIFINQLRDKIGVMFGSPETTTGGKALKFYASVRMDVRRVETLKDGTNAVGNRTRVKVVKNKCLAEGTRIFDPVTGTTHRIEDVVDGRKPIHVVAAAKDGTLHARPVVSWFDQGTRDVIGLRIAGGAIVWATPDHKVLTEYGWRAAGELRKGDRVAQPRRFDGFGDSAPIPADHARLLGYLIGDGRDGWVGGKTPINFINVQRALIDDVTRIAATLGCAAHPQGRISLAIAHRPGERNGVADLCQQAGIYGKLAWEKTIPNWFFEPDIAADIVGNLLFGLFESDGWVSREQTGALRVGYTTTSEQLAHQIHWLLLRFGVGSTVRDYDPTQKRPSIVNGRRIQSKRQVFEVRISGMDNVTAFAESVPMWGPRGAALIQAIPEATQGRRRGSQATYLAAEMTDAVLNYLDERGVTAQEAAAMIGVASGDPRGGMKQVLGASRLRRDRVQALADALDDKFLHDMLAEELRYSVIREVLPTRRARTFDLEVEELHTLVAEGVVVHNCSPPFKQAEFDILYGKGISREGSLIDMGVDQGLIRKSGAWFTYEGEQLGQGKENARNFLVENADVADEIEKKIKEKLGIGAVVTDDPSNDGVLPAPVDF
The experiment in a line: Fluorescence Cell-Free Homogeneous Dose Retest to Identify Inhibitors of RecA-Intein Splicing Activity. [Related pubchem assays (depositor defined):AID2097, AID2223, AID489010, AID492950]. It is filed as functional.

In another assay the target is T3, Leucine aminopeptidase (Plasmodium falciparum 3D7, UniProt Q8IL11).
T3 sequence (Q8IL11 whole entry): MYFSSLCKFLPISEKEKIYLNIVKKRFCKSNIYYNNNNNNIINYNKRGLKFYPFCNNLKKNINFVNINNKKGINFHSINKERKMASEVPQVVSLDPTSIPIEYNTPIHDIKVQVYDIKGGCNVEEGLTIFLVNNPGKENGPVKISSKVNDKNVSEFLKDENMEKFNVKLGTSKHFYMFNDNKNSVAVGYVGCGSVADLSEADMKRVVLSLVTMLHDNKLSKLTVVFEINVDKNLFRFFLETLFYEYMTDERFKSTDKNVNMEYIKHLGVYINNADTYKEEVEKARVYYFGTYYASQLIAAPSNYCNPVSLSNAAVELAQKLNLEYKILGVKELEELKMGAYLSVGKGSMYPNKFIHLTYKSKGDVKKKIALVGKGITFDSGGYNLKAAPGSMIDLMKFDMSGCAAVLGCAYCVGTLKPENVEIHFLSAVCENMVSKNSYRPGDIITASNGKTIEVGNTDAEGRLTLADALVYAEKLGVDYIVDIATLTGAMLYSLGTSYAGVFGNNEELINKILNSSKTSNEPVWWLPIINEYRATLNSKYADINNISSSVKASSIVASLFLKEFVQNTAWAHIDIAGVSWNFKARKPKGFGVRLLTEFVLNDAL
The experiment in a line: P. falciparum M17LAP inhibitors, primary screen, biochemical, fluorogenic H-Leu-NHMec substrate, 1536-well (AID 1619). It is filed as functional.

The nature of assay [7]: microbe, parasite or virus in culture. Type of assay: functional. To be noted: Mycobacterium tuberculosis.
Assay [8] deals with T4, Heat shock factor protein 1 (Mus musculus, UniProt P38532).
T4 sequence (P38532 whole entry): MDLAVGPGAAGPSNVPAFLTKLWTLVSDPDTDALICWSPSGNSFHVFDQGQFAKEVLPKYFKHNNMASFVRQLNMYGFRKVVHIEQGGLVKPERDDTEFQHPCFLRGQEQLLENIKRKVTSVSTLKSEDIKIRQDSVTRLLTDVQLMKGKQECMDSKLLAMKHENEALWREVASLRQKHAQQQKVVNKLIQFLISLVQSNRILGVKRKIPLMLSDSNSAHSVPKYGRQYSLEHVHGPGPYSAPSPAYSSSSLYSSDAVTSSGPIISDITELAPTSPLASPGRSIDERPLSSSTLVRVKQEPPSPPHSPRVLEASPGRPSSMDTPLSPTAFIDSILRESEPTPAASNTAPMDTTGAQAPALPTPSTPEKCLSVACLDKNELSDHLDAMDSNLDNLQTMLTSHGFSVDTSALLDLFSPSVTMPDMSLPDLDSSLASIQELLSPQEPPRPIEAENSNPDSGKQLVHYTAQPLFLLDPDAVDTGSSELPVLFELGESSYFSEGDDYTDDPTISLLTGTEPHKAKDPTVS
The experiment in a line: enhancement of HSF1-driven luciferase signal – cell-based, NIH3T3, luminescence, dose retest, confirmation (AID 435004).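 Further: stress induced by proteasome inhibitor MG132 added 30 min after compound; luciferase reporter driven by HSF1 response element in NIH3T3 cells; actives raise luminescence as potentiators of the MG132 stress response.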 It is filed as functional.

The next assay addresses T5, Streptokinase A (Streptococcus pyogenes serotype M1, UniProt P10520).
T5 sequence (P10520 whole entry): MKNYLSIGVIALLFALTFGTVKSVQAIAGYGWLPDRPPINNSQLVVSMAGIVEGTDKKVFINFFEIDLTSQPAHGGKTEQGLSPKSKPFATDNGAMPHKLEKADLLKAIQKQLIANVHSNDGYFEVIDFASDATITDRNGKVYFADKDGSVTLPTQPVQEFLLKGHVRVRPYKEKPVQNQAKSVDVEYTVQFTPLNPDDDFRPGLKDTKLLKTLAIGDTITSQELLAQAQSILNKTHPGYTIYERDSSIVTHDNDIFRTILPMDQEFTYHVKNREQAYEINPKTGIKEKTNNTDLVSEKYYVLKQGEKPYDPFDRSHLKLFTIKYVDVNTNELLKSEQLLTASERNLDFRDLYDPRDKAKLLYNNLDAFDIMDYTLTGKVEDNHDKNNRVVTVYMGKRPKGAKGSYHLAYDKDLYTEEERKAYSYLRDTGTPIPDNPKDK
The experiment in a line: viability-normalized secreted streptokinase activity reduction – plasminogen activation absorbance, OD405, dose response (AID 1914).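 Further: secreted streptokinase activity via plasminogen activation per viability signal from cell pellet.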 It is filed as functional, Streptococcus pyogenes M1 GAS.

The nature of a further assay: cells. Type of assay: functional.

Sequence of Cytochrome P450 2D6 (P10635 whole entry): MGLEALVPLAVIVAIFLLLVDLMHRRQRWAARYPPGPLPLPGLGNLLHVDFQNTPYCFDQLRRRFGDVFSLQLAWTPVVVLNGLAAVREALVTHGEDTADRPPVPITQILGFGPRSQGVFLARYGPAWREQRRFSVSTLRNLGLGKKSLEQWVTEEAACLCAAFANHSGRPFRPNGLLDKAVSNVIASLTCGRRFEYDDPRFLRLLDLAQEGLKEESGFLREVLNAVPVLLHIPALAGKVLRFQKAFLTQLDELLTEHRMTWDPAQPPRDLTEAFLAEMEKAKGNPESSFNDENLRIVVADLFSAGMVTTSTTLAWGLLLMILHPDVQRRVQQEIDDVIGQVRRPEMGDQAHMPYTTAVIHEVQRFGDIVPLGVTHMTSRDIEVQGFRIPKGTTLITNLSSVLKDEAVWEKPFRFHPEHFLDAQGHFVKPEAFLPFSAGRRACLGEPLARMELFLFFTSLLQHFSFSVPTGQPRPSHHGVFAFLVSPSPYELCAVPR

For the molecule `O=C1CC(SC(=Nc2ccccc2)Nc2ccccc2)C(=O)N1c1cccc(Cl)c1` (configuration not stated), the half-maximal activity concentration (AC50) on Cytochrome P450 2D6 is 10 µM (inconclusive). In addition, the EC50 is 33.2 µM (active) in assay [1] and 24.5 µM (active) in assay [2].

As to `O=C(N/N=C/c1ccc([N+](=O)[O-])o1)c1cc(-c2cccc(Br)c2)nc2ccccc12`, the EC50 in [3] is 0.398 µM (active); in assay [1], 7.86 µM (active); in [2], 7.92 µM (active); in assay [4], > 60 µM (not active); in assay [5], 0.128 µM (active); in the assay on Streptococcus, 0.796 µM (active).

In the case of `CCCCn1c(=N)n(CC(O)COc2ccc(C)cc2)c2ccccc21` (configuration not stated), the EC50 in [1] is 6.36 µM (active); in assay [2], 6.43 µM (active).

Take `CC(/C=N/NC(=O)Cc1cc(O)[nH]n1)=C\c1ccccc1`: the AC50 in assay [6] is 2.53 µM (active). In addition, at Protein RecA, the EC50 is 0.935 µM (active). In addition, the IC50 at Leucine aminopeptidase is 72.4 µM (active).

Consider `Cc1cc(N/N=C2/CCCc3ccccc32)nc2ccccc12`, for which, in assay [7], the CC50 was > 40 µM (active).

Take `CCOC(=O)c1cnn2cc(-c3[nH]ncc3[N+](=O)[O-])cnc12`: on Leucine aminopeptidase, the IC50 is 5.26 µM (active).

On to `CCOC(=O)N1CCC(NC(=O)c2cccs2)CC1`, for which, in [8], the EC50 is > 260 µM (inactive).

Regarding `Fc1ccc(CN2CCN(c3ncnc4scc(-c5ccccc5)c34)CC2)cc1`, the EC50 in assay [8] was > 260 µM (inactive).

As for `Cc1nn(-c2ccccc2)c(C)c1/C=N/NC(=O)c1cc(-c2cccc3ccccc23)[nH]n1`, the EC50 in [3] is 18.6 µM (active); with Streptococcus, 89.4 µM (active); on Streptokinase A, > 150 µM (not active). Also, the CC50 in [7] is 30.5 µM (active).

Consider `O=C(N/N=C/c1ccc(F)c(F)c1)c1cc2c(s1)-c1ccccc1CC2`, for which the EC50 was 21.2 µM (active) in assay [1] and 22.4 µM (active) in [2].

Consider `COc1cccc(/C=N/NC(=O)CC2C(=O)NN=C2C)c1OC` (configuration not stated), for which the half-inhibitory concentration (IC50) at Leucine aminopeptidase was 23.5 µM (active).

As for `CCOC(=O)CN1C=C(c2ccc3ccccc3n2)C(C[N+](=O)[O-])c2ccccc21` (configuration not stated), the EC50 in assay [8] is 70.3 µM (active).

For the molecule `O=C(N/N=C/c1ccc(Br)s1)c1cccs1`, in [7], the CC50 was 33.3 µM (active).

With `COc1ccccc1C(=O)NNC(=O)C(=O)NCc1ccccc1`, the CC50 in assay [7] is > 40 µM (active).

`S=C1NC(c2ccccc2)N2C(=S)NC(c3ccccc3)N12` (configuration not stated): the IC50 at Leucine aminopeptidase is 20.9 µM (active).

Take `Cc1nc(CN2CCN(Cc3nc(C(c4ccccc4)c4ccccc4)no3)CC2)cs1`: the EC50 in assay [8] was > 260 µM (inactive).

With `CCOc1ccc(C(=O)N2CCN(S(=O)(=O)c3cccs3)CC2)c(OCC)c1`, in assay [8], the EC50 was > 260 µM (inactive).

With `Cc1cccc(N(CC(=O)Nc2ccccc2-c2ccccc2)S(=O)(=O)c2ccccc2)c1C`, the EC50 in assay [8] is > 260 µM (inactive).

With `Cc1ccc(P(=O)(CSC(=N)N)c2ccc(C)cc2)cc1`, the EC50 in assay [1] is 25.4 µM (active); in assay [2] it was 30.7 µM (active).

On to `COc1ccc(NC(=O)Nc2ccc3oc(C)nc3c2)cc1`, for which the IC50 at Leucine aminopeptidase is 14.8 µM (active).

As to `Cc1cc(C)cc(OCC(O)CN2C(=O)NC(C)(C)C2=O)c1` (configuration not stated), the EC50 in [8] is > 260 µM (inactive).

Consider `COc1ccc(NC(=O)CSc2nnc(NC(=O)c3ccccc3C(=O)O)s2)cc1`, for which the IC50 on Leucine aminopeptidase is 6.27 µM (active).

Consider `CN1C(=O)C(O)(CC(=O)c2ccc(F)cc2)c2cc(Br)ccc21` (configuration not stated), for which the EC50 in assay [1] was 15.7 µM (active); in [2], 19.1 µM (active).

Consider `COc1cccc(/C=N/NC(=S)NC2CC3CC2C2C=CCC32)c1O` (configuration not stated), for which the EC50 in [8] is > 260 µM (inactive).

For `O=C(CNC(=O)c1ccco1)OCc1ccc(C(=O)Oc2ccccc2)cc1`, in assay [7], the CC50 was > 40 µM (active). Further, the IC50 in “cells” is 11.7 µM (active).

As usually defined, the AC50 is the concentration at which the activity in the assay is half-maximal. What is called EC50 is the concentration at which the effect is half-maximal. As a reminder, the IC50 is the concentration that gives 50% inhibition.

(Values after ChEMBL document CHEMBL1201862, “PubChem BioAssay data set” (2004).)
